Literature values, collected in patent US20260130928A1, “COMBINATION OF AKR1C3 ACTIVATED ANTICANCER PRODRUG COMPOUND AND ANALGESIC DRUG FOR TREATING CANCER PATIENTS ACCOMPANIED BY PAIN” (ASCENTAWITS PHARMACEUTICALS, LTD., priority 2022, published 2026).
Where two headings read alike, the source gives them in different places.

Conditions: cited from earlier work; for AUC0-t / CL (L/h/m^2) / Cmax / T1/2 / Tmax / Vdss (L/m^2): patients, mean
[1] = OBI-3424 dose level 1 mg/m^2, infusion
[2] = OBI-3424 dose level 2 mg/m^2, infusion
[3] = OBI-3424 dose level 4 mg/m^2, infusion
[4] = OBI-3424 dose level 6 mg/m^2, infusion
[5] = OBI-3424 dose level 8 mg/m^2, infusion
[6] = OBI-3424 dose level 10 mg/m^2, infusion
[7] = OBI-3424 dose level 12 mg/m^2, infusion
[8] = OBI-3424 dose level 14 mg/m^2, infusion

## C[C@H](OP(=O)(N1CC1)N1CC1)c1ccc([N+](=O)[O-])c(Oc2cccc(C(=O)N(C)C)c2)c1 [AST-3424]
[1]
  AUC0-t: 217.10 ng·h/mL
  CL (L/h/m^2): 4.74 L/h/m^2
  Cmax: 289.30 ng/mL
  T1/2: 17.4 min
  Tmax: 27.6 min
  Vdss (L/m^2): 2.45 L/m^2
[2]
  AUC0-t: 298.00 ng·h/mL
  CL (L/h/m^2): 8.85 L/h/m^2
  Cmax: 375.80 ng/mL
  T1/2: 18.6 min
  Tmax: 30 min
  Vdss (L/m^2): 4.13 L/m^2
[3]
  AUC0-t: 650.90 ng·h/mL
  CL (L/h/m^2): 7.74 L/h/m^2
  Cmax: 803.50 ng/mL
  T1/2: 12.6 min
  Tmax: 19.8 min
  Vdss (L/m^2): 2.68 L/m^2
[4]
  AUC0-t: 1278.10 ng·h/mL
  CL (L/h/m^2): 4.84 L/h/m^2
  Cmax: 1360.30 ng/mL
  T1/2: 44.4 min
  Tmax: 30 min
  Vdss (L/m^2): 3.72 L/m^2
[5]
  AUC0-t: 1678.40 ng·h/mL
  CL (L/h/m^2): 6.53 L/h/m^2
  Cmax: 1613.10 ng/mL
  T1/2: 40.2 min
  Tmax: 25.2 min
  Vdss (L/m^2): 3.97 L/m^2
[6]
  AUC0-t: 2037.00 ng·h/mL
  CL (L/h/m^2): 4.92 L/h/m^2
  Cmax: 2654.70 ng/mL
  T1/2: 34.2 min
  Tmax: 30 min
  Vdss (L/m^2): 3.06 L/m^2
[7]
  AUC0-t: 2159.40 ng·h/mL
  CL (L/h/m^2): 8.20 L/h/m^2
  Cmax: 2481.90 ng/mL
  T1/2: 33 min
  Tmax: 26.4 min
  Vdss (L/m^2): 4.33 L/m^2
[8]
  AUC0-t: 2131.80 ng·h/mL
  CL (L/h/m^2): 8.49 L/h/m^2
  Cmax: 2619.20 ng/mL
  T1/2: 33 min
  Tmax: 25.2 min
  Vdss (L/m^2): 4.31 L/m^2
Between the two doses (Cycle 1 Day1 and Cycle 1 Day8)
  accumulation of exposure (Cmax and AUC): no accumulation of exposure
